Laboratory results as given in patent US4539149A, “β-Lactam antibacterial agents” (Beecham Group p.l.c., priority 1981, dated 1985).
Values after ≈ are worked out from the molar mass of the structure shown. Structures can show the parent of a compound that is named as a salt.

System: P. mirabilis 889
Assay: MIC against P. mirabilis 889
Format: cell-based
[1] = Proteus mirabilis, 889, P. mirabilis 889

SMILES	MIC [1] [µg/mL]	also measured
CCN1CCN(C(=O)N[C@H](C(=O)N[C@]2(NC=O)C(=O)N3[C@@H](C(=O)O)C(C)(C)S[C@@H]32)c2ccc(O)c(O)c2)C(=O)C1=O [Example 58, 6β-[L-2-[(4-ethyl-2,3-dioxopiperazin-1-yl)carbonyllamino]-2-(3,4-dihydroxyphenyl)acetamido]-6α-formamidopenicillanic acid, sodium salt]	100	–
CCN1CCN(C(=O)NC(C(=O)NC2(NC=O)C(=O)N3C(C(=O)[O-])C(C)(C)SC32)c2ccc(O)c(O)c2)C(=O)C1=O.[Na+] (stereo not drawn) [Example 33, 6β-[2-[(4-Ethyl-2,3-dioxopiperazin-1-yl)carbonylamino]-2-(3,4-dihydroxyphenyl)acetamido]6α-formamidopenicillanic acid, sodium salt]	–	MIC against P. mirabilis 889: 0.2 µg/mL
CC1(C)S[C@H]2N(C(=O)[C@@]2(NC=O)NC(=O)[C@H](NC(=O)N2CCN(S(C)(=O)=O)C2=O)c2ccccc2)[C@H]1C(=O)O [Example 12, 6α-Formamido-6β-[D-2-(3-methylsulphonyl-2-oxoimidazolidin-1-ylcarbonylamino)-2-penylacetamido]penicillanic acid, sodium salt]	0.5	–
CCN1CCN(C(=O)N[C@@H](C(=O)N[C@]2(NC=O)C(=O)N3C(C(=O)O)=C(COC(C)=O)CS[C@@H]32)c2ccccc2)C(=O)C1=O [Example 36, 7β-[D-2-[(4-Ethyl-2,3-dioxopiperazin-1-yl)carbonylamino]-2-phenylacetamido]-7α-Formamidocephalosporanic acid, sodium salt]	0.2	–
CC(=O)Oc1ccc([C@@H](N)C(=O)N[C@]2(NC=O)C(=O)N3[C@@H](C(=O)O)C(C)(C)S[C@@H]32)cc1OC(C)=O [Example 64, 6β-[D-2-Amino-2-(3,4-diacetoxyphenyl)acetamido]-6α-formamido penicillanic acid]	100 (≈ 197 µM)	–
CNC(=O)C[C@@H](N)C(=O)N[C@@H](C(=O)N[C@]1(NC=O)C(=O)N2[C@@H](C(=O)O)C(C)(C)S[C@@H]21)c1ccc(O)cc1 [Example 50, 6β-[D-2-[D-2-amino-3-(N-methylcarbamoyl)propionamido]-2-(4-hydroxyphenyl)acetamido]-6α-formamidopenicillanic acid, sodium salt]	–	MIC (Proteus mirabilis, 889): 1 µg/mL
CCN1CCN(C(=O)N[C@@H](C(=O)N[C@]2(NC=O)C(=O)N3C(C(=O)O)=C(COC(C)=O)CS[C@@H]32)c2ccc(O)c(O)c2)C(=O)C1=O [Example 69, 7β-[D-2-[(4-Ethyl-2,3-dioxopiperazin-1-yl)carbonylamino]-2-(3,4-dihydroxyphenyl)acetamido]-7α-formamidocephalosporanic acid, sodium salt]	0.1	–
CC(=O)OCC1=C(C(=O)O)N2C(=O)[C@@](NC=O)(NC(=O)C(NC(N)=O)c3cccs3)[C@H]2SC1 (single isomer, unassigned) [Example 52 (Isomer 2), 7β-[2-[(Aminocarbonyl)amino]-2-(thien-2-yl)acetamido]-7α-formamidocephalosporanic acid, sodium salt (Isomer 2)]	–	MIC against P. mirabilis 889: 25 µg/mL
CC1(C)S[C@H]2N(C(=O)[C@@]2(NC=O)NC(=O)C(C(=O)O)c2ccsc2)[C@H]1C(=O)O (stereo partly drawn) [Example 3, 6α-Formamido-6β-[2-carboxy-2-(3-thienyl)acetamido]penicillanic acid, di-sodium salt]	25	–
CC(=O)OCC1=C(C(=O)O)N2C(=O)[C@@](NC=O)(NC(=O)[C@H](N)c3ccccc3)[C@H]2SC1 [Example 35, 7β-(D-2-Amino-2-phenylacetamido)-7α-formamidocephalosporanic acid, trifluoroacetic acid salt]	> 100	–
CC1(C)S[C@H]2N(C(=O)[C@@]2(NC=O)NC(=O)[C@H](NC(=O)c2cnc3ncnn3c2O)c2ccccc2)[C@H]1C(=O)O [Example 14, 6α-Formamido-6β-[D-2-(7-hydroxy-1,2,4-triazolo[2,3-a]pyrimidin-6-ylcarboxamido)-2-phenylacetamido]penicillanic acid, disodium salt]	> 100	–
CCN1CCN(C(=O)N[C@@H](C(=O)N[C@]2(NC=O)C(=O)N3C(C(=O)O)=C(COC(C)=O)CS[C@@H]32)c2ccc(O)cc2)C(=O)C1=O [Example 39, 7β-[D-2-[(4-Ethyl-2,3-dioxopiperazin-1-yl)carbonylamino]-2-(4-hydroxyphenyl)acetamido]-7α-formamidocephalosporanic acid, sodium salt]	0.2	–
CC1(C)S[C@H]2N(C(=O)[C@@]2(NC=O)NC(=O)[C@H](NC(=O)N2CCN(N=Cc3ccco3)C2=O)c2ccc(O)cc2)[C@H]1C(=O)O [Example 20, 6α-Formamido-6β-[D-2-[[3-(furan-2-ylmethyleneamino)-2-oxoimidazolidin-1-yl]carbonylamino]-2-(4-hydroxyphenyl)acetamido]penicillanic acid, sodium salt]	0.25	–
CC1(C)S[C@H]2N(C(=O)[C@@]2(NC=O)NC(=O)[C@H](NC(=O)N2CCNC2=O)c2ccccc2)[C@H]1C(=O)O [Example 11, 6α-Formamido-6β-[D-2-(2-oxoimidazolidin-1-ylcarbonylamino)-2-phenylacetamido]penicillanic acid sodium salt]	1	–
CC(=O)OCC1=C(C(=O)O)N2C(=O)[C@@](NC=O)(NC(=O)C(C(=O)O)c3ccsc3)[C@H]2SC1 (stereo partly drawn) [Example 43, 7β-[2-Carboxy-2-(thien-3-yl)acetamido]-7α-formamido cephalosporanic acid, disodium salt]	100	–
CC1(C)S[C@H]2N(C(=O)[C@@]2(NC=O)NC(=O)[C@H](NC(=O)Nc2cnc(Nc3ccc(S(N)(=O)=O)cc3)nc2O)c2ccc(O)cc2)[C@H]1C(=O)O [Example 19, 6β-[D-2-[3-[2-(4-Aminosulphonylphenyl)amino-4-hydroxypyrimidin-5-yl]ureido]-2-(4-hydroxyphenyl)acetamido]-6α-formamidopenicillanic acid, disodium salt]	0.5	–
O=CN[C@@]1(NC(=O)Cc2cccs2)C(=O)N2C(C(=O)[O-])=C(C[n+]3ccccc3)CS[C@@H]21 [Example 60, 7α-Formamido-3-(pyridiniummethyl)-7β-(thien-2-ylacetamido)-ceph-3-em-4-carboxylate]	50 (≈ 109 µM)	–
CCN1CCN(C(=O)N[C@@H](C(=O)N[C@]2(NC=O)C(=O)N3[C@@H](C(=O)O)C(C)(C)S[C@@H]32)c2cccs2)C(=O)C1=O [Example 26, 6β-[D-2-(4-Ethyl-2,3-dioxopiperazin-1-yl)carbonylamino]-2-(thien-2-yl)acetamido]-6α-formamidopenicillanic acid, sodium salt]	0.1	–
CC1(C)S[C@H]2N(C(=O)[C@@]2(NC=O)NC(=O)[C@H](NC(=O)c2cnc(NCc3ccccc3)nc2O)c2ccccc2)[C@H]1C(=O)O [Example 15, 6α-Formamido-6β-[D-2-(2-benzylamino-4-hydroxypyrimidin-5-ylcarboxamido)-2-phenylacetamido]penicillanic acid, disodium salt]	50	–
CCN1CCN(C(=O)N[C@@H](C(=O)N[C@]2(NC=O)C(=O)N3C(C(=O)O)=C(COC(C)=O)CS[C@@H]32)c2cccs2)C(=O)C1=O [Example 44, 7β-[D-2-[(4-Ethyl-2,3-dioxopiperazin-1-yl)carbonylamino]-2-(thien-2-yl)acetamido]-7α-formamido-cephalosporanic acid, sodium salt]	0.1	–
CCN1CCN(C(=O)N[C@H](C(=O)N[C@]2(NC=O)C(=O)N3[C@@H](C(=O)O)C(C)(C)S[C@@H]32)c2cccs2)C(=O)C1=O [Example 27, 6β-[L-2-[(4-Ethyl-2,3-dioxopiperazin-1-yl)carbonylamino]-2-(thien-2-yl)acetamido]-6α-formamidopenicillanic acid sodium salt]	0.5	–
CC(=O)OCC1=C(C(=O)O)N2C(=O)[C@@](NC=O)(NC(=O)[C@H](NC(=O)N3CCN(S(C)(=O)=O)C3=O)c3ccccc3)[C@H]2SC1 [Example 38, 7α-Formamido-7β-[D-2-[[3-(methylsulphonyl)-2-oxoimidazolidin-1-yl]carbonylamino]-2-phenylacetamido]cephalosporanic acid, sodium salt]	1	–
CC1(C)S[C@H]2N(C(=O)[C@@]2(NC=O)NC(=O)[C@H](NC(=O)[C@@H](Cc2ccccc2)NC(N)=O)c2ccc(O)cc2)[C@H]1C(=O)O [Example 21, 6β-[D-2-(D-2-Carbamoylamino-3-phenylpropionamido)-2-(4-hydroxyphenyl)acetamido]-6α-formamidopenicillanic acid, sodium salt]	2.5	–
CCN1CCN(C(=O)NC(C(=O)NC2(NC=O)C(=O)N3C(C(=O)[O-])=C(CSc4nnc(C)s4)CSC32)c2ccc(OC(C)=O)c(OC(C)=O)c2)C(=O)C1=O.[Na+] (stereo not drawn) [Example 68, 7β-[2-(3,4-Diacetoxyphenyl)-2-[(4-ethyl-2,3-dioxopiperazin-1-yl)carbonylamino]acetamido]-7α-formamido-3-[(2-methyl-1,3,4-thiadiazol-5-yl)thiomethyl]ceph-3-em-4-carboxylic acid, sodium salt]	–	MIC against P. mirabilis 889: 0.1 µg/mL
CCN1CCN(C(=O)N[C@H](C(=O)N[C@]2(NC=O)C(=O)N3[C@@H](C(=O)O)C(C)(C)S[C@@H]32)c2ccc(O)cc2)C(=O)C1=O [Example 6, 6α-Formamido-6β-[L-2-[(4-ethyl-2,3-dioxopiperazin-1-yl)carbonylamino]-2-(4-hydroxyphenyl)acetamido]penicillanic acid, sodium salt]	125	–
CCN1CCN(C(=O)N[C@@H](C(=O)N[C@]2(NC=O)C(=O)N3C(C(=O)O)=C(COC(C)=O)CS[C@@H]32)c2ccc(OC(C)=O)c(OC(C)=O)c2)C(=O)C1=O [Example 41, 7β-[D-2-[(4-Ethyl-2,3-dioxopiperazin-1-yl)carbonylamino]-2-(3,4-diacetoxyphenyl)acetamido]-7α-formamidocephalosporanic acid, sodium salt]	0.1	–
